# According to PubChem BioAssay AID2060602 (Molecular Pharmacology Branch, DTP, NCI, 2025):
# Tested on: 648629-189-R-J1-PDC complex spheroids viability
# Assay: Anticancer human tumor 648629-189-R-J1-PDC patient-derived bladder carcinoma cell line growth inhibition [CLK]
# Conditions: for IC50: curve of first compound; for viability, T/C: stronger effect = lower value
# Text: A high-throughput screen of multi-cell type tumor spheroids was designed to identify active combinations of […] and targeted small molecules. Complex spheroids include a stromal component modeled by human endothelial cells (HUVEC) and fibroblasts modeled by human mesenchymal stem cells (MSCs). The concentration ranges selected for each drug and investigational agent were based upon clinically achievable concentrations if the clinical Cmax of the agent was known.
# Compounds. The drugs and investigational agents: cirtuvivint (SM08502; NSC835563), CC-671 (NSC850746), vemurafenib (NSC761431), tapotoclax (NSC804041), sotorasib (NSC818433), adagrasib (NSC831453), MRTX-1133 (NSC836407), BAY2416964 (NSC825713), copanlisib (NSC816437), inavolisib (NSC800729), abemaciclib (NSC768073), osimertinib (NSC779217), entinostat (NSC756642), eltanexor (KPT-8602, NSC794443), venetoclax (NSC766270), ceralasertib (NSC777638), bortezomib (NSC756655), olaparib (NSC753686), talazoparib (NSC767125), alisertib (NSC759677), peposertib (NSC802822), gemcitabine (NSC613327), 5-fluorouracil (NSC19893), SN-38 (NSC673596), oxaliplatin (NSC266046), paclitaxel (NSC125973), and doxorubicin (NSC123127), were obtained from the National Cancer Institute (NCI) Developmental Therapeutics Program Chemical Repository. The FDA-approved anticancer drug set is available from the Developmental Therapeutics Program at https://dtp.cancer.gov/organization/dscb/obtaining/available plates.htm. […] The stock solutions were prepared in dimethyl sulfoxide (DMSO, Sigma-Aldrich, St. Louis, MO, cat. D2650), except for the platinum complexes which were prepared in saline (Quality Biological, Gaithersburg, MD, cat. 114-055-101), at 800-fold the tested concentration and stored at -70 degrees C prior to their use. All drugs and investigational agents were tested over a range starting from a high concentration at or near the clinical Cmax and decreasing in half-log increments. If the clinical Cmax for an agent had not been determined, the highest concentration tested was 10 microM.
# Cell Culture. All cells were maintained in an incubator at 37 degrees C and 5% CO2 with 95% humidity. The PDC lines were cultured according to standard operating procedures established by the NCI PDMR. Briefly, all PDCs were thawed and cultured in Matrigel-coated flasks prepared with a working solution of 1X Ham's F-12 nutrient mix, without supplementation (Invitrogen, Waltham, MA, cat. 11765054), 100 U/mL penicillin-streptomycin (Invitrogen, cat. 15140122), and 2.5% Matrigel (Corning Inc., Corning, NY, cat. 354248) for the first three passages. The 947758-054-R-J2-PDC line was cultured in 6B/Colon 1A media, which includes advanced DMEM/F-12 (Thermo Fisher Scientific, cat. 12634028), 10 mM HEPES (Thermo Fisher Scientific, cat. 15630080), 1X GlutaMAX supplement (Thermo Fisher Scientific, cat. 35050061), 0.1 mg/mL primocin (InvivoGen, cat. ant-pm-2), 10% defined fetal bovine serum, heat inactivated (HyClone Laboratories Inc., cat. SH30070.03HI), 1.25 mM N-Acetyl-L-cysteine (Sigma-Aldrich, cat. A9165), 10 mM nicotinamide (Sigma-Aldrich, cat. N0636), 1X B-27 supplement (Thermo Fisher Scientific, cat. 17504044), 1X N-2 supplement (Thermo Fisher Scientific, cat. 17502048), and 10 microM Y-27632 dihydrochloride (Tocris Bioscience, cat. 1254). The 876862-298-R-J1-PDC was cultured in 6E media, which includes all 6B/Colon 1A media components plus 50% L-WRN conditioned media (ATCC, cat. CRL-3276), 50 ng/mL recombinant human EGF recombinant protein (hEGF; Thermo Fisher Scientific, cat. PHG0311), 10 ng/mL recombinant human fibroblast growth factor 10 (hGFG-10; PeproTech, cat. 100-26), 1 ng/mL recombinant human fibroblast growth factor 2 (hFGF-2; PeproTech, cat. 100-18B), and 1 µM prostaglandin E2 (PGE2; Tocris, cat. 2296). The 227483-062-R1-J1-PDC line was cultured in Panc media, containing all 6E components except hFGF-2, with the addition of 500 nM SB-431542 (Selleckchem, cat. S1067) and 10 nM gastrin (Tocris, cat. 3006). […]
# [1] = second compound 0.0316 µM, first compound 0.0316 µM
# [2] = second compound 0.0316 µM, first compound 0.1 µM
# [3] = second compound 0.0316 µM, first compound 0.316 µM
# [4] = second compound 0.0316 µM, first compound 1 µM
# [5] = second compound 0.0316 µM, first compound 3.16 µM
# [6] = second compound 0.0316 µM, first compound 10 µM
# [7] = second compound 0.1 µM, first compound 0.0316 µM
# [8] = second compound 0.1 µM, first compound 0.1 µM
# [9] = second compound 0.1 µM, first compound 0.316 µM
# [10] = second compound 0.1 µM, first compound 1 µM
# [11] = second compound 0.1 µM, first compound 3.16 µM
# [12] = second compound 0.1 µM, first compound 10 µM
# [13] = second compound 0.316 µM, first compound 0.0316 µM
# [14] = second compound 0.316 µM, first compound 0.1 µM
# [15] = second compound 0.316 µM, first compound 0.316 µM
# [16] = second compound 0.316 µM, first compound 1 µM
# [17] = second compound 0.316 µM, first compound 3.16 µM
# [18] = second compound 0.316 µM, first compound 10 µM
# [19] = second compound 1 µM, first compound 0.0316 µM
# [20] = second compound 1 µM, first compound 0.1 µM
# [21] = second compound 1 µM, first compound 0.316 µM
# [22] = second compound 1 µM, first compound 1 µM
# [23] = second compound 1 µM, first compound 3.16 µM
# [24] = second compound 1 µM, first compound 10 µM
# [25] = second compound 3.16 µM, first compound 0.0316 µM
# [26] = second compound 3.16 µM, first compound 0.1 µM
# [27] = second compound 3.16 µM, first compound 0.316 µM
# [28] = second compound 3.16 µM, first compound 1 µM
# [29] = second compound 3.16 µM, first compound 3.16 µM
# [30] = second compound 3.16 µM, first compound 10 µM
# [31] = second compound 10 µM, first compound 0.0316 µM
# [32] = second compound 10 µM, first compound 0.1 µM
# [33] = second compound 10 µM, first compound 0.316 µM
# [34] = second compound 10 µM, first compound 1 µM
# [35] = second compound 10 µM, first compound 3.16 µM
# [36] = second compound 10 µM, first compound 10 µM
# 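For viability, T/C in this document: drug exposure lasted seven days before viability readout; 100% = DMSO vehicle control wells.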
smiles,measurement,setting,value
CCCS(=O)(=O)Nc1ccc(F)c(C(=O)c2c[nH]c3ncc(-c4ccc(Cl)cc4)cc23)c1F + CN1CCN(c2cc(C(=O)Nc3cc4cc(-c5cnn(C)c5)ccc4cn3)ccn2)CC1,IC50,second compound 0.0316 µM,7050 nM
same,IC50,second compound 0.1 µM,7250 nM
same,IC50,second compound 0.316 µM,< 31.6 nM
same,IC50,second compound 1 µM,< 31.6 nM
same,IC50,second compound 3.16 µM,< 31.6 nM
same,IC50,second compound 10 µM,< 31.6 nM
same,"viability, T/C",[1],115%
same,"viability, T/C",[2],104%
same,"viability, T/C",[3],116%
same,"viability, T/C",[4],110%
same,"viability, T/C",[5],126%
same,"viability, T/C",[6],21.8%
same,"viability, T/C",[7],110%
same,"viability, T/C",[8],118%
same,"viability, T/C",[9],105%
same,"viability, T/C",[10],98.7%
same,"viability, T/C",[11],104%
same,"viability, T/C",[12],28.9%
same,"viability, T/C",[13],37.6%
same,"viability, T/C",[14],57.9%
same,"viability, T/C",[15],55.4%
same,"viability, T/C",[16],46.8%
same,"viability, T/C",[17],44.1%
same,"viability, T/C",[18],7.7%
same,"viability, T/C",[19],0.47%
same,"viability, T/C",[20],0.46%
same,"viability, T/C",[21],0.3%
same,"viability, T/C",[22],0.39%
same,"viability, T/C",[23],0.22%
same,"viability, T/C",[24],0.86%
same,"viability, T/C",[25],0.11%
same,"viability, T/C",[26],0.67%
same,"viability, T/C",[27],0.13%
same,"viability, T/C",[28],0.13%
same,"viability, T/C",[29],0.14%
same,"viability, T/C",[30],0.52%
same,"viability, T/C",[31],0.11%
same,"viability, T/C",[32],0.13%
same,"viability, T/C",[33],0.14%
same,"viability, T/C",[34],0.16%
same,"viability, T/C",[35],0.15%
same,"viability, T/C",[36],0.25%
COC1C=CCC(C)C(C)S(=O)(=O)NC(=O)c2ccc3c(c2)N(CC2CCC21)CC1(CCCc2cc(Cl)ccc21)CO3 (centres undefined) + CN1CCN(c2cc(C(=O)Nc3cc4cc(-c5cnn(C)c5)ccc4cn3)ccn2)CC1,IC50,second compound 0.0316 µM,2090 nM
same,IC50,second compound 0.1 µM,2100 nM
same,IC50,second compound 0.316 µM,< 31.6 nM
same,IC50,second compound 1 µM,< 31.6 nM
same,IC50,second compound 3.16 µM,< 31.6 nM
same,IC50,second compound 10 µM,< 31.6 nM
same,"viability, T/C",[1],106%
same,"viability, T/C",[2],99.9%
same,"viability, T/C",[3],93.2%
same,"viability, T/C",[4],82%
same,"viability, T/C",[5],32.4%
same,"viability, T/C",[6],3.21%
same,"viability, T/C",[7],114%
same,"viability, T/C",[8],94.4%
same,"viability, T/C",[9],92.4%
same,"viability, T/C",[10],80.1%
same,"viability, T/C",[11],33.3%
same,"viability, T/C",[12],3.02%
same,"viability, T/C",[13],50.2%
same,"viability, T/C",[14],46.9%
same,"viability, T/C",[15],37.9%
same,"viability, T/C",[16],14.4%
same,"viability, T/C",[17],4.72%
same,"viability, T/C",[18],1.78%
same,"viability, T/C",[19],0.38%
same,"viability, T/C",[20],0.34%
same,"viability, T/C",[21],0.42%
same,"viability, T/C",[22],0.15%
same,"viability, T/C",[23],0.13%
same,"viability, T/C",[24],0.08%
same,"viability, T/C",[25],0.13%
same,"viability, T/C",[26],0.12%
same,"viability, T/C",[27],0.16%
same,"viability, T/C",[28],0.14%
same,"viability, T/C",[29],0.43%
same,"viability, T/C",[30],0.12%
same,"viability, T/C",[31],0.17%
same,"viability, T/C",[32],0.13%
same,"viability, T/C",[33],0.2%
same,"viability, T/C",[34],0.21%
same,"viability, T/C",[35],0.24%
same,"viability, T/C",[36],0.51%
